Experimental data taken from US20260306463A1, “SIK INHIBITORS TO TREAT CHRONIC KIDNEY DISEASE” (The General Hospital Corporation, priority 2023, published 2026).

Experiments:
[1] = test system: mouse CKD kidneys and human kidney organoids; assay: overlap of injury-regulated genes rescued by SK-124 in mouse adenine diet and human cisplatin organoid studies; conditions: Venn overlap, both CKD models
Experimental: FIGS. 13A-13E. Transcriptomic effects of SK-124 in cisplatin-induced human kidney organoid model. RNA-seq was performed on kidney organoid RNA samples (n=4/group) from FIG. 8. Volcano plot show gene regulated (>2-fold change, p(adj)<0.05) by cisplatin (versus vehicle, A) or within cisplatin-treated organoids by SK-124 (versus DMSO control, B). In Volcano plot, representative fibrosis/injury markers (Col8a1, Fni, Serpinel) and proximal tubule integrity (Lrp2 and Hnf4a) are shown. Scatterplot (C) and heatmap (D) showing integration of individual RNA-seq comparisons.
Isolated RNA samples from the mouse adenine diet study and human kidney organoid experiment were submitted to Novogene and bulk-RNA sequencing on NovaSeq X Plus Ilumina Novoseq Platform. Sequencing reads were mapped to the mouse reference genome (mm10/GRCm38) or human reference genome (GRCh38/hg38) using Salmon and differential gene expression analysis was performed using DESeq2.

[2] = test system: renal fibrosis, adenine-induced CKD mice; assay: renal fibrosis in adenine CKD mice (trichrome, immunoblot, RT-qPCR); type: in vivo, mouse
Experimental: FIGS. 3A-3C. SK-124 treatment reduces fibrosis in adenine-induced chronic kidney disease. (A) Representative trichrome stained sections from the indicated groups. Darker staining indicates fibrosis which is increased in vehicle-treated adenine diet mice and reduced by SK-124 treatment. (B) Kidney protein lysates were isolated and analyzed by immunoblotting for alpha-smooth muscle actin (αSMA) (top) and GAPDH (bottom). (C) Whole kidney RNA from the indicated groups was analyzed by RT-qPCR for the indicated fibrosis marker.
7-week-old female CD1 mice were obtained from Charles River Laboratories (Wilmington, MA) and were fed on 0.2% adenine containing diet (TD.130900; 0.2% Adenine, 0.9% Phosphate, 0.5% Calcium; Envigo) or control diet (TD. 96348) for 6 or 8 weeks to induce chronic kidney disease (CKD). Mice were oral gavaged with 40 mg/kg SK-124, or intraperitonially injected with 80 μg/kg PTH, or treated with vehicle 5 days a week for the duration of the special diet.
cDNA was prepared using Primescript RT kit (Takara Inc), with 750 ng RNA per reaction. RT-qPCR was performed by using PerfeCa® SYBR® Green FAstMix® ROX (Quanta bio) in the StepOnePlus™ Real-time PCR System (Applied Biosystems). Hmbs was used as a control housekeeping gene for mouse samples, and B-Actin was used for organoids, relative expression was calculated (2^-deltaCT method) and compared to the mean of control group if necessary. Primers used for RT-qPCR are listed in Table 2 (mouse primers) and Table 3 (human primers).
Snap-frozen kidneys were homogenized in NP-40 lysis buffer (FNN0021, Thermo) with using TissueLyserII at 30 Hz for 5 minutes. Samples were rotated at 4 deg for 20 minutes and frozen on dry ice and thawed. After centrifuging for 30 minutes at 4 deg, the supernatants were collected. After determining the protein concentration by Bradford assay, […] of protein was loaded for western blotting. For KGli cells, the cells were washed with cold PBS then scraped into TNT buffer (Tris-NaCl-Tween buffer, 20 mM Tris-HCl pH 8, 200 mM NaCl, 0.5% Triton X-100 containing 1X-protease inhibitor cocktail (Bimake Inc. 100X, Cat. #B14001), 1 mM DTT, 1 mM NaF, 1 mM Vanadate (New England Biolabs)). Next, samples were vortexed for 1 minute and centrifuged at 14,000g for 6 minutes at 4 deg, and the supernatant was collected.
For immunoblotting, the lysates were separated by SDS-PAGE (Bio-rad precast gels), and proteins were transferred to the nitrocellulose membranes. Then, the membranes were blocked in 5% milk in tris-buffered saline plus 0.05% Tween-20 (TBST) and incubated with primary antibody in 5% BSA-TBST overnight at 4° C. Next day, after washing, membranes were incubated with anti-rabbit HRP-coupled secondary antibody (1:2500, Cell Signaling Technology, 7074S) or anti-mouse HRP-coupled secondary antibody (1:2500, Cell Signaling, 7076S), and signals were detected with SuperSignal West Femto Maximum Sensitivity Substrate (Thermo scientific) using the iBright imager (ThermoFisher). The antibodies used are: SIK2 (1:1000, Cell Signaling, 6919), GAPDH (1:1000, Cell Signaling, 2118), αSMA (1:1000, Invitrogen, 14-9760-82), pSMAD3 (1:1000, Cell Signaling, 9520), and SMAD⅔ (1:1000, Cell Signaling, 8685).
Hematoxylin and eosin (H+E) staining was performed on some sections using standard protocols and Masson's Trichome stain for fibrosis was performed according to the manufacturer's instructions (ab150686, abcam). Formalin-fixed paraffin embedded sections were also used for in situ hybridization according to the manufacturer instructions (ACDbio). Briefly, the sections were blocked with hydrogen peroxide for 10 minutes at room temperature, followed by antigen retrieval with Pepsin (R2283, Sigma-Aldrich) in humidified chamber in 40° C. HybEZ oven. The Sik1 (526411, ACD), Sik2 (526421, ACD), or Sik3 (526431, ACD) probe was added to the sections for 2 hours in the humidified chamber at 40° C. Then, the signal was amplified (322310, ACD) and detected using Brown DAB kit (322310, ACD). […]

CCc1nnc(-c2c(OC)cc(-c3cnc4cc(-c5cnn(C)c5)ccn34)cc2OC)o1 [SK-124, 2-[2,6-Dimethoxy-4-[7-(1-methylpyrazol-4-yl)imidazo[1,2-a]pyridin-3-yl]phenyl]-5-ethyl-1,3,4-oxadiazole]
conserved genes induced with injury and reduced by SK-124 [1]: 419 genes
conserved genes suppressed by injury and restored by SK-124 [1]: 373 genes
fibrosis (trichrome staining) ([2]; adenine diet, SK-124 40 mg/kg oral, 40 mg/kg): reduced fibrosis
αSMA protein ([2]; kidney lysates, immunoblot): reduced
Colla1 mRNA ([2]; whole kidney RNA, RT-qPCR): reduced
Vimentin (Vim) mRNA ([2]; whole kidney RNA, RT-qPCR): reduced
αSMA mRNA ([2]; whole kidney RNA, RT-qPCR): reduced
